Experimental data as given in EP0187956A2, “Pharmaceutical composition for the treatment of defects of the gastrointestinal mucous membrane” (BOEHRINGER INGELHEIM KG, priority 1984, dated 1986).

Key:
[1] = tested on: Durch Ethanol verursachte Magengeschwüre; experiment: Ethanol-induced gastric ulcers in fasted female rats; assay type: in vivo, Ratten; conditions: for ED50: Rattus norvegicus, po, 30 min before 0,7 ml absolute ethanol, dose protecting 50 % of the animals
Protocol: (§1) Die mucoprotektive Wirkung auf den Gastrointestinaltrakt verschiedener Verbindungen wurde im Vergleich zu dem bekannten Antiulcusmittel Carbenoxolone an weiblichen Ratten getestet, die für 24 Stunden vor Beginn des Tests fasteten. Diese Tiere wurden den folgenden Tests unterworfen:
(§2) Gruppen von 10 Ratten erhielten abgestufte Dosen der zu untersuchenden Verbindungen oral mittels Schlundsonde; die Verbindungen waren in 0,2 % Methocel suspendiert. Nach 30 Minuten erhielten die Tiere 0,7 ml absolutes Ethanol. 30 Minuten später wurden die Tiere getötet, der Magen entfernt, entlang der großen Curvatur geöffnet und von einem neutralen Beobachter untersucht. Einem Magengeschwür entsprechende Schädigungen wurden auch nach ihrer Schwere beurteilt, aber ihre Häufigkeit (in %) diente als Basis für die Berechnung des prozentualen Schutzes. Die ED50 ist diejenige Dosis einer Verbindung, die 50 % der Tiere schützt; sie wird ausgedrückt durch die Relation Schutz:Dosis.

[2] = tested on: Durch Natronlauge verursachte Magengeschwüre; experiment: Sodium hydroxide (0,2 N)-induced gastric ulcers in fasted female rats; assay type: in vivo, Ratten; conditions: for ED50: Rattus norvegicus, po, 1 h, p.o., 0,2 N sodium hydroxide as ulcerogen, animals killed 60 min after it
Protocol: as §1, §2
Der Test verlief in gleicher Weise wie der unter 1. beschriebene. Anstelle von Ethanol wurde 0,2 N Natronlauge als Ulcus verursachendes Agens gewählt und die Tiere 60 Minuten nach dessen Gabe getötet. Die ED50 wurde, wie oben angegeben, bestimmt.

[3] = tested on: Durch Ethanol verursachte Magengeschwüre bei Ratten, die mit Indomethacin und Acetylsalicylsäure vorbehandelt worden waren; experiment: Ethanol-induced gastric ulcers in rats pretreated with indomethacin or acetylsalicylic acid (suppression of prostaglandin synthesis); assay type: in vivo; conditions: 30 mg/kg p.o.
Protocol: as §1, §2
Es ist bekannt, daß Prostaglandine einen cytoprotektiven Effekt haben. Weiter ist bekannt, daß Prostaglandine eine antiulcerogene Wirkung haben. Durch eine Hemmung der Prostaglandin-Biosynthese, z.B. durch Acetylsalicylsäure oder Indomethacin, wird die antiulceregene Wirkung unterdrückt.
Gruppen von je 10 Ratten wurden entweder mit Indomethacin (3 mg/kg s.c.) oder Acetylsalicylsäure (10 mg/kg) vorbehandelt und nach 30 bis 60 Minuten die Testsubstanz verabreicht. Dann wurde ein durch Ethanol verursachtes Magengeschwür gesetzt und, wie unter 1. beschrieben, weitergearbeitet.

CC(CS)C(=O)N1CCc2sccc2C1C(=O)O [C, 1-(3-Mercapto-2-(R,S)-methylpropanoyl)-4,5,6,7-tetrahydro-thieno-[3,2-c]pyridin-4-(R,S)-carbonsäure]
ED50 [1]: 6 mg/kg

CC(CS)C(=O)N1CCC[C@@H]1C(=O)O (stereo partly drawn) [Captopril, D-2-Methyl-3-mercaptopropanoyl-L-prolin, reference compound]
% Schutz (% Tier ohne Magengeschwüre) ([1]; 30 mg/kg p.o.): 5%
% Schutz (% Tier ohne Magengeschwüre) ([1]; 55 mg/kg p.o.): 30%
% Schutz (% Tier ohne Magengeschwüre) ([1]; 100 mg/kg p.o.): 70%
ED50 [1]: 74.4 mg/kg

C[C@@H](CSC(C[N+](=O)[O-])c1ccccc1)C(=O)N1CCC[C@H]1C(=O)O (stereo partly drawn) [D, 1-[3-(1-Phenyl-2-nitro-äthylthio)-2-R-methylpropanoyl]-L-prolin]
ED50 [1]: 0.6 mg/kg

CCOC(=O)[C@H](CCc1ccccc1)N[C@@H](C)C(=O)N1CCc2ccsc2[C@H]1C(=O)O [E, N-[N-1-(S-Ethoxycarbonyl-3-phenylpropyl)-2-S-alanyl]-4,5,6,7-tetrahydro-thieno[2,3-c]pyridin-7-R-carbonsäure]
ED50 [1]: 12 mg/kg

CC(=O)SC[C@@H](C)C(=O)N1CCc2sccc2C1C(=O)O (stereo partly shown) [F]
ED50 [1]: 3 mg/kg

CC1(C)[C@@H](OC(=O)CCC(=O)O)CC[C@]2(C)[C@H]3C(=O)C=C4[C@@H]5C[C@@](C)(C(=O)O)CC[C@]5(C)CC[C@@]4(C)[C@]3(C)CC[C@@H]12 [Carbenoxolone, reference compound]
%Schutz-wirkung ([2]; 100 mg/kg p.o.): 33%
%Schutz-wirkung ([2]; 170 mg/kg p.o.): 70%
%Schutz-wirkung ([2]; 300 mg/kg p.o.): 80%
ED50 [2]: 132 mg/kg
% Schutz (% Tier ohne Magengeschwüre) ([1]; 30 mg/kg p.o.): 10%
% Schutz (% Tier ohne Magengeschwüre) ([1]; 100 mg/kg p.o.): 60%
% Schutz (% Tier ohne Magengeschwüre) ([1]; 300 mg/kg p.o.): 90%
ED50 [1]: 89 mg/kg

C[C@H](CS)C(=O)N1CCC[C@H]1C(=O)OCOC(=O)C(C)(C)C [G, 1-(3-Mercapto-Z-D-methylpropanoyl)-L-prolin-pivaloyloxymethylester]
%Schutz-wirkung ([2]; 3 mg/kg p.o.): 10%
%Schutz-wirkung ([2]; 10 mg/kg p.o.): 39%
%Schutz-wirkung ([2]; 17 mg/kg p.o.): 70%
%Schutz-wirkung ([2]; 30 mg/kg p.o.): 80%
ED50 [2]: 11.7 mg/kg
% Schutzwirkung ([3]; pretreatment: Acetylsalicylsäure 10 mg/kg p.o., 60 min before ethanol): 10%
% Schutzwirkung ([3]; pretreatment: Indomethacin 3 mg/kg s.c., 30 min before ethanol): 40%
% Schutzwirkung ([3]; pretreatment: saline (control)): 100%
% Schutz (% Tier ohne Magengeschwüre) ([1]; 3 mg/kg p.o.): 30%
% Schutz (% Tier ohne Magengeschwüre) ([1]; 10 mg/kg p.o.): 50%
% Schutz (% Tier ohne Magengeschwüre) ([1]; 30 mg/kg p.o.): 40%
ED50 [1]: 4 mg/kg
